Laboratory results from patent US12611434B2, “Bifidobacterium brevis and its application in preventing or alleviating psoriasis thereof” (Jiangnan University, priority 2020, dated 2026).

What was measured:
Assay type in all cases: in vivo, BALB/c female mice
IL-22 = IL-22 content in skin of psoriasis mice by ELISA kit; conditions: compared with model group; intragastric daily (bacteria 0.2 mL of 1×10^9 CFU/mL; methotrexate 1 mg/kg/day); back skin, 1st day of week 4
Description: (§1) 6 to 8-week-old SPF-class BALB/c female mice were divided into 4 groups: a normal group, a model group, a positive reference group (hereinafter referred to as PRG) and experimental groups, where the experimental groups included a CCFM1078 group intragastrically administrated with the B. breve CCFM1078 and a B. breve 1 group intragastrically administrated with the B. breve 1, with 6 animals in each group. All mice were raised in the Experimental Animal Center of Jiangnan University and fed with ordinary feed, at a constant temperature of 21 to 26° C. and at the humidity of 40 to 70%, with noise of less than or equal to 60 dB, and animal illumination of 15 to 20 LX (all animal experiment procedures were reviewed and approved by the Animal welfare and Ethics Management Committee of Jiangnan University).
(§2) The experimental cycle was a total of 3 weeks, and modeling was performed in week 3. The back of the mice was depilated the day before modeling, in an area of about 2.5 cm×2.5 cm. […] The mice were sacrificed on the 1st day of week 4, a part of the skin of the back depilated region of mice was taken and stored at −80° C., and the content of IL-22 in the skin was detected by an ELISA kit.

IL-17 = IL-17 content in skin of psoriasis mice by ELISA kit; conditions: compared with model group; intragastric daily (bacteria 0.2 mL of 1×10^9 CFU/mL); back skin, 1st day of week 4
Description: as §1
as §2, with “IL-17” for “IL-22”

IL-23 = IL-23 content in skin of psoriasis mice by ELISA kit; conditions: compared with model group; intragastric daily (bacteria 0.2 mL of 1×10^9 CFU/mL; methotrexate 1 mg/kg/day); back skin, 1st day of week 4
Description: as §1
as §2, with “IL-23” for “IL-22”

## CN(Cc1cnc2nc(N)nc(N)c2n1)c1ccc(C(=O)N[C@@H](CCC(=O)O)C(=O)O)cc1 [methotrexate]
IL-22
  decrease of IL-22 content in the skin: 41.8%
IL-17
  decrease of IL-17 content in the skin: 24.6%
IL-23
  decrease of IL-23 content in the skin: 43.8%
